Measurements as given in patent publication US10550144B2, “6-aryl-9-glycosylpurines and use thereof” (UNIVERZITA PALACKEHO V OLOMOUCI, priority 2014, dated 2020).
pIC50: −log10 of the molar value. Read-outs that look alike come from different tables or passages of the source.

Columns and labels:
[1] = tested on: skin fibroblasts BJ and keratinocytes HaCaT; assay: MTT in vitro cytotoxicity test on skin cells; format: cell-based, human
Procedure: MTT assay is a standard test of toxicity based on photometric measurement of the ability of metabolically active cells to reduce MTT (3-(4,5-dimethylthiazol-2-yl)-2,5-diphenyltetrazolium bromide). Using the assay, the effects of 72 hour treatments with several concentrations of the compounds (sixfold dilution, maximal concentration=50 microM) on viability of skin fibroblasts BJ and keratinocytes HaCaT were evaluated. About 5,000 cells were seeded per well of a 96-well plate 24 hours before the treatment. DMSO vehiculum was used as a negative control. After 72 hour treatment, new medium with MTT (Sigma, M2128) was added to a final concentration of 0.5 mg/ml. After 3 hours, medium was removed and resulting formazan in the cells was dissolved in DMSO. The absorbance was measured at 570 nm (640 nm reference wavelength). The IC50 values were calculated from the dose-response curves. 6-Benzylaminopurine riboside and 6-furfurylaminopurine riboside were used as positive controls they were toxic in the MTT test.

[2] = tested on: Dais cotinifolia shoot-tip explants; assay: Shoot multiplication and shoot-tip necrosis in shoot cultures of Dais cotinifolia; format: in vivo; details: after 8 weeks of culture
Procedure: Explants were washed thoroughly with 0.1% (v/v) of Tween® 20 for 2 min, and decontaminated with 70% ethanol for 15 sec followed by 0.2% aqueous HgCl2 for 10 min. The explants were rinsed five times with sterile distilled water. […] Each value was presented as the mean±standard error, with three replicates; each replicate consisting of 15 explants per treatment.

Vaccinia virus = details: Masakatsu et al. 1977; cited from earlier work
Herpes simplex virus = details: Masakatsu et al. 1977; cited from earlier work
[3] = tested on: Amelanchier alnifolia nodal explants; assay: Micropropagation growth response with BAP, Amelanchier alnifolia; details: after 35 days in vitro, N = 9
[4] = tested on: Gymnosporia buxifolia shoot-tip explants; assay: Shoot-tip necrosis in in vitro cultures of Gymnosporia buxifolia; details: after 4 weeks of culture
[5] = tested on: Harpagophytum procumbens nodal explants; assay: Micropropagation growth response with BAP, Harpagophytum procumbens; details: after 35 days in vitro, N = 12

With `OC[C@H]1OC(n2cnc3c(NCc4ccccc4)ncnc32)[C@H](O)[C@@H]1O` (stereo partly drawn) [6-benzylaminopurin9-ribosylpurine] the “toxicity in the MTT test” value [1] was “toxic” and the pIC50 ([1]; MTT, 72 hour treatment, maximal concentration 50 microM, BJ and HaCaT, table does not separate the cell lines) was at least 5.52.
With `Cc1cccc(CNc2ncnc3c2ncn3[C@@H]2O[C@H](CO)[C@@H](O)[C@@H]2O)c1` [Example 3CH3BAPA, 6-(3-methylbenzylamino)-9-β-D-arabinofuranosylpurine] the Morphogenesis in vitro ([2]; 5 μM in MS medium) was “Green shoots”, the “STN [%] (shoot-tip necrosis)” value ([2]; 5 μM in MS medium) was 52.2 ± 0.89b % and the “Shoot length [cm]” value ([2]; 5 μM in MS medium) was 1.42 ± 0.21bc cm. The “Shoots [explant^−1] […]” value ([2]; 5 μM in MS medium) was 1.0 ± 0.00c explant^−1, the Morphogenesis in vitro ([2]; 10 μM in MS medium) was “Green shoots” and the “STN [%] (shoot-tip necrosis)” value ([2]; 10 μM in MS medium) was 50.0 ± 0.75bc %. The “Shoot length [cm]” value ([2]; 10 μM in MS medium) was 1.86 ± 0.14ab cm, the “Shoots [explant^−1] […]” value ([2]; 10 μM in MS medium) was 1.0 ± 0.00c explant^−1 and the Morphogenesis in vitro ([2]; 20 μM in MS medium) was “Pale green shoots”. The “STN [%] (shoot-tip necrosis)” value ([2]; 20 μM in MS medium) was 45.5 ± 0.95d %, the “Shoot length [cm]” value ([2]; 20 μM in MS medium) was 1.94 ± 0.09ab cm and the “Shoots [explant^−1] […]” value ([2]; 20 μM in MS medium) was 1.8 ± 0.48bc explant^−1. The Morphogenesis in vitro ([2]; 30 μM in MS medium) was “Pale green shoots”, the “STN [%] (shoot-tip necrosis)” value ([2]; 30 μM in MS medium) was 31.3 ± 1.12ef % and the “Shoot length [cm]” value ([2]; 30 μM in MS medium) was 2.26 ± 0.22a cm. The “Shoots [explant^−1] […]” value ([2]; 30 μM in MS medium) was 2.2 ± 0.32b explant^−1, the “activity in killing Vaccinia virus” value (Vaccinia virus) was “No effect” and the “activity in killing Herpes simplex virus” value (Herpes simplex virus) was “No effect”. For the same compound, the “Fresh weight (g) mean SE” value ([3]; 5 μM compound with 10 μM BAP) was 0.249 ± 0.0594 g, the “Shoot length (mm) mean SE” value ([3]; 5 μM compound with 10 μM BAP) was 14.11 ± 1.670 mm and the “Shoot no. mean SE” value ([3]; 5 μM compound with 10 μM BAP) was 7.6 ± 2.10. For the same compound, the “Fresh weight (g) mean SE” value ([3]; 10 μM compound with 10 μM BAP) was 0.349 ± 0.1025 g, the “Shoot length (mm) mean SE” value ([3]; 10 μM compound with 10 μM BAP) was 18.89 ± 2.288 mm and the “Shoot no. mean SE” value ([3]; 10 μM compound with 10 μM BAP) was 10.6 ± 2.75. For the same compound, the “Fresh weight (g) mean SE” value ([3]; 20 μM compound with 10 μM BAP) was 0.563 ± 0.0729 g, the “Shoot length (mm) mean SE” value ([3]; 20 μM compound with 10 μM BAP) was 16.22 ± 1.730 mm and the “Shoot no. mean SE” value ([3]; 20 μM compound with 10 μM BAP) was 13.7 ± 2.06. For the same compound, the “Fresh weight (g) mean SE” value ([3]; 30 μM compound with 10 μM BAP) was 0.335 ± 0.0877 g, the “Shoot length (mm) mean SE” value ([3]; 30 μM compound with 10 μM BAP) was 18.33 ± 3.122 mm and the “Shoot no. mean SE” value ([3]; 30 μM compound with 10 μM BAP) was 11.6 ± 2.99. For the same compound, the “STN [%] (shoot-tip necrosis)” value ([4]; 5 μM in MS medium) was 53.3 ± 0.24d %, the “Shoot length [cm]” value ([4]; 5 μM in MS medium) was 1.36 ± 0.27bc cm and the “Shoots [explant^−1] […]” value ([4]; 5 μM in MS medium) was 1.0 ± 0.0a explant^−1. For the same compound, the “STN [%] (shoot-tip necrosis)” value ([4]; 10 μM in MS medium) was 40.0 ± 0.20fg %, the “Shoot length [cm]” value ([4]; 10 μM in MS medium) was 1.82 ± 0.17b cm and the “Shoots [explant^−1] […]” value ([4]; 10 μM in MS medium) was 1.0 ± 0.0a explant^−1. For the same compound, the “STN [%] (shoot-tip necrosis)” value ([4]; 20 μM in MS medium) was 22.6 ± 0.28hi %, the “Shoot length [cm]” value ([4]; 20 μM in MS medium) was 3.30 ± 0.14a cm and the “Shoots [explant^−1] […]” value ([4]; 20 μM in MS medium) was 1.0 ± 0.0a explant^−1. The “STN [%] (shoot-tip necrosis)” value ([4]; 30 μM in MS medium) was 13.3 ± 0.24j %, the “Shoot length [cm]” value ([4]; 30 μM in MS medium) was 3.00 ± 0.11a cm and the “Shoots [explant^−1] […]” value ([4]; 30 μM in MS medium) was 1.0 ± 0.0a explant^−1. The “Fresh weight (g) mean SE” value ([5]; 5 μM compound with 10 μM BAP) was 0.8607 ± 0.1884 g, the “Shoot length (mm) mean SE” value ([5]; 5 μM compound with 10 μM BAP) was 28.6 ± 4.397 mm and the “Shoot no. mean SE” value ([5]; 5 μM compound with 10 μM BAP) was 2.8 ± 0.573. The “Fresh weight (g) mean SE” value ([5]; 10 μM compound with 10 μM BAP) was 1.0523 ± 0.2439 g, the “Shoot length (mm) mean SE” value ([5]; 10 μM compound with 10 μM BAP) was 45.8 ± 7.094 mm and the “Shoot no. mean SE” value ([5]; 10 μM compound with 10 μM BAP) was 2.6 ± 0.340. For the same compound, the “Fresh weight (g) mean SE” value ([5]; 20 μM compound with 10 μM BAP) was 0.8456 ± 0.1339 g, the “Shoot length (mm) mean SE” value ([5]; 20 μM compound with 10 μM BAP) was 27 ± 3.531 mm and the “Shoot no. mean SE” value ([5]; 20 μM compound with 10 μM BAP) was 2.3 ± 0.423. The “Fresh weight (g) mean SE” value ([5]; 30 μM compound with 10 μM BAP) was 1.1419 ± 0.213 g, the “Shoot length (mm) mean SE” value ([5]; 30 μM compound with 10 μM BAP) was 40.6 ± 4.831 mm and the “Shoot no. mean SE” value ([5]; 30 μM compound with 10 μM BAP) was 3.8 ± 0.593.
With `OC[C@H]1OC(n2cnc3c(NCc4ccco4)ncnc32)[C@H](O)[C@@H]1O` (stereo partly drawn) [6-furfurylamino-9-ribosylpurine] the “toxicity in the MTT test” value ([1]; 72 hour treatment) was “toxic”.
